# From ChEMBL document CHEMBL4152348, “Discovery of a Potent and Orally Bioavailable Cyclophilin Inhibitor Derived from the Sanglifehrin Macrocycle” (J Med Chem, 2018)
# What was measured:
# [1] = Apparent permeability across apical to basolateral side in human Caco2 cells measured at 60 to 120 mins by LC/MS/MS analysis; format: ADME, cell-based; details: for Papp A→B: Caco-2, read-out: permeability; for permeability: Caco-2
# [2] = Lipophilicity, log D of the compound at pH 7.4 after 30 mins by HPLC/UV analysis; format: physicochemical; details: buffer
# [3] = Apparent permeability across basolateral to apical side in human Caco2 cells measured at 60 to 120 mins by LC/MS/MS analysis; format: ADME, cell-based; details: for Papp B→A: Caco-2, read-out: permeability; for permeability: Caco-2
# [4] = Half life in human plasma at 2 uM up to 4 hrs by LC/MS/MS analysis; format: ADME, cell-free
# [5] = Aqueous solubility of the compound at pH 7.2; format: physicochemical
# [6] = Half life in dog plasma at 2 uM up to 4 hrs by LC/MS/MS analysis; format: ADME, cell-free, Canis lupus familiaris
# [7] = Half life in rat plasma at 2 uM up to 4 hrs by LC/MS/MS analysis; format: ADME, cell-free
# [8] = Oral bioavailability in Beagle dog at 5 mg/kg by HPLC/MS analysis; format: ADME, organism-based, Canis lupus familiaris; details: in vivo
# [9] = Clearance in Sprague-Dawley rat at 1 mg/kg, iv or 5 mg/kg, po by HPLC/MS analysis; format: ADME, organism-based; details: in vivo
# [10] = Terminal half life in Beagle dog at 1 mg/kg, iv or 5 mg/kg, po by HPLC/MS analysis; format: ADME, organism-based, Canis lupus familiaris; details: in vivo, read-out: beta t1/2 (converted)
# [11] = Volume of distribution at steady state in Sprague-Dawley rat at 1 mg/kg, iv or 5 mg/kg, po by HPLC/MS analysis; format: ADME, organism-based; details: in vivo, read-out: Vdss
# [12] = Clearance in Beagle dog at 1 mg/kg, iv or 5 mg/kg, po by HPLC/MS analysis; format: ADME, organism-based, Canis lupus familiaris; details: in vivo
# [13] = Oral bioavailability in Sprague-Dawley rat at 5 mg/kg by HPLC/MS analysis; format: ADME, organism-based; details: in vivo
# [14] = Volume of distribution at steady state in Beagle dog at 1 mg/kg, iv or 5 mg/kg, po by HPLC/MS analysis; format: ADME, organism-based, Canis lupus familiaris; details: in vivo, read-out: Vdss
# [15] = Terminal half life in Sprague-Dawley rat at 1 mg/kg, iv or 5 mg/kg, po by HPLC/MS analysis; format: ADME, organism-based; details: in vivo, read-out: beta t1/2 (converted)
# [16] = Oral bioavailability in Sprague-Dawley rat at 10 mg/kg by HPLC/MS analysis; format: ADME, organism-based; details: in vivo
# [17] = Clearance in Sprague-Dawley rat at 10 mg/kg, iv or 10 mg/kg, po by HPLC/MS analysis; format: ADME, organism-based; details: in vivo
# [18] = Terminal half life in Sprague-Dawley rat at 10 mg/kg, iv or 10 mg/kg, po by HPLC/MS analysis; format: ADME, organism-based; details: in vivo, read-out: beta t1/2 (converted)
# [19] = Volume of distribution at steady state in Sprague-Dawley rat at 10 mg/kg, iv or 10 mg/kg, po by HPLC/MS analysis; format: ADME, organism-based; details: in vivo, read-out: Vdss
Compound,Papp A→B [1] [×10⁻⁶ cm/s],logD at 0.5 h [2],Papp B→A [3] [×10⁻⁶ cm/s],half-life at 2 µM [4] [h],half-life at 2 µM [6] [h],half-life at 2 µM [7] [h],other results
CC(C)[C@@H]1OC(=O)C2(/C=C/c3ccc4ccc(nc4c3)[C@@H](C)NC(=O)[C@@H]3CCCN(N3)C(=O)[C@H](C)NC1=O)COCCOC2,0.72,2.1,10,–,–,–,–
CC(C)[C@@H]1OC(=O)C2(/C=C/c3ccc4ccc(nc4c3)[C@@H](C)NC(=O)[C@@H]3CCCN(N3)C(=O)[C@H](C)NC1=O)CCOCC2,3.2,2.4,19,–,–,–,–
CO[C@H]1CC[C@@]2(/C=C/c3ccc4ccc(nc4c3)[C@@H](C)NC(=O)[C@@H]3CCCN(N3)C(=O)[C@H](C)NC(=O)[C@H](C(C)C)OC2=O)CC1,13,3.1,33,–,–,–,–
CC(C)[C@@H]1OC(=O)C2(/C=C/c3ccc4ccc(nc4c3)[C@@H](C)NC(=O)[C@@H]3CCCN(N3)C(=O)[C@H](C)NC1=O)CCS(=O)(=O)CC2,0.48,1.9,12,–,–,–,–
CC(C)[C@@H]1OC(=O)C2(/C=C/c3ccc4ccc(nc4c3)[C@@H](C)NC(=O)[C@@H]3CCCN(N3)C(=O)[C@H](C)NC1=O)COCOC2,1.5,2.2,13,> 25,> 25,> 25,half-life [10]: 25 h; bioavailability [16]: 100%; clearance [17]: 7 mL/min/kg; half-life [18]: 24 h; clearance [12]: 1.33 mL/min/kg; Vd [19]: 12 L/kg; Vd [14]: 2.3 L/kg; bioavailability [8]: 55%
CC(C)[C@@H]1OC(=O)C2(/C=C/c3ccc4ccc(nc4c3)[C@@H](C)NC(=O)[C@@H]3CCCN(N3)C(=O)[C@H](C)NC1=O)CCC(O)CC2 (stereo in doubt; 47),0.61,1.9,9.2,–,–,–,–
CC(C)[C@@H]1OC(=O)C2(/C=C/c3ccc4ccc(nc4c3)[C@@H](C)NC(=O)[C@@H]3CCCN(N3)C(=O)[C@H](C)NC1=O)CCC(O)CC2 (stereo in doubt; 48),–,–,–,–,–,–,permeability [1]: 0.9 ×10⁻⁶ cm/s; permeability [3]: 7.1 ×10⁻⁶ cm/s

# Second part, led by results:
Papp A→B [1] [×10⁻⁶ cm/s],logD at 0.5 h [2],Papp B→A [3] [×10⁻⁶ cm/s],half-life at 2 µM [4] [h],half-life at 2 µM [6] [h],half-life at 2 µM [7] [h],Compound,other results
2.3,2.1,34,> 25,> 25,–,CC(C)[C@@H]1NC(=O)C(C)(C)/C=C/c2cc3cc(ccc3cn2)[C@@H](C)OC(=O)[C@@H]2CCCN(N2)C(=O)[C@H](C)NC1=O,solubility [5]: < 6 µg/mL
6.2,2.5,38,> 25,> 25,–,CC(C)[C@@H]1NC(=O)C/C=C/c2ccc3ccc(cc3c2)[C@@H](C)OC(=O)[C@@H]2CCCN(N2)C(=O)[C@H](C)NC1=O,–
0.1,2,7.9,> 25,12.2,9.4,CC(C)[C@@H]1OC(=O)C(C)(C)/C=C/c2cc3cc(ccc3cn2)[C@@H](C)NC(=O)[C@@H]2CCCN(N2)C(=O)[C@H](C)NC1=O,–
0.33,1.6,25,> 25,> 25,0.133,CC(C)[C@@H]1NC(=O)CC/C=C/c2cc3cc(ccc3cn2)[C@@H](C)OC(=O)[C@@H]2CCCN(N2)C(=O)[C@H](C)NC1=O,–
12,2.9,31,> 25,10,0.0833,CO[C@H]1C(=O)N[C@@H](C(C)C)C(=O)N[C@@H](C)C(=O)N2CCC[C@H](N2)C(=O)O[C@H](C)c2cccc(c2)/C=C/CC[C@H]1C,–
0.32,1.1,13,9.32,6.95,0.133,CC(C)[C@@H]1NC(=O)C/C=C/c2cc3cc(ccc3cn2)[C@@H](C)OC(=O)[C@@H]2CCCN(N2)C(=O)[C@H](C)NC1=O,bioavailability [8]: 8%
2,2.7,21,17.1,> 25,0.25,CC(C)[C@@H]1NC(=O)C(C)(C)/C=C/c2ccc3ccc(nc3c2)[C@@H](C)OC(=O)[C@@H]2CCCN(N2)C(=O)[C@H](C)NC1=O,solubility [5]: < 6 µg/mL
0.08,1,0.59,–,–,–,CC(C)[C@@H]1OC(=O)C(CO)(CO)/C=C/c2ccc3ccc(nc3c2)[C@@H](C)NC(=O)[C@@H]2CCCN(N2)C(=O)[C@H](C)NC1=O,–
–,3.2,–,> 25,> 25,6.87,CC(C)[C@@H]1OC(=O)C(C)(C)/C=C/c2ccc3ccc(nc3c2)[C@@H](C)NC(=O)[C@@H]2CCCN(N2)C(=O)[C@H](C)NC1=O,permeability [1]: 17 ×10⁻⁶ cm/s; clearance [9]: 10.8 mL/min/kg; half-life [10]: 10 h; Vd [11]: 2.5 L/kg; clearance [12]: 6 mL/min/kg; bioavailability [13]: 90%; permeability [3]: 47 ×10⁻⁶ cm/s; Vd [14]: 3.9 L/kg; bioavailability [8]: 100%; half-life [15]: 3.9 h
4.4,2.1,37,12.5,17.4,0.0833,CO[C@@H]1/C=C/c2cc3cc(ccc3cn2)[C@@H](C)OC(=O)[C@@H]2CCCN(N2)C(=O)[C@H](C)NC(=O)[C@H](C(C)C)NC(=O)[C@@H]1C,–
1.2,2.1,3.5,8.87,> 25,–,CC(C)[C@@H]1NC(=O)C/C=C/c2ccc3ccc(nc3c2)[C@@H](C)OC(=O)[C@@H]2CCCN(N2)C(=O)[C@H](C)NC1=O,–
